# Experimental data reported in patent publication US20090137557A1, “Calcilytic Compounds” (priority 2005, published 2009).
# Target: T1, human calcium receptor (Homo sapiens, UniProt P41180)
# T1 construct: expressed in transfected cells; host or cells: HEK 293 4.0-7
# T1 sequence (P41180 20-1078): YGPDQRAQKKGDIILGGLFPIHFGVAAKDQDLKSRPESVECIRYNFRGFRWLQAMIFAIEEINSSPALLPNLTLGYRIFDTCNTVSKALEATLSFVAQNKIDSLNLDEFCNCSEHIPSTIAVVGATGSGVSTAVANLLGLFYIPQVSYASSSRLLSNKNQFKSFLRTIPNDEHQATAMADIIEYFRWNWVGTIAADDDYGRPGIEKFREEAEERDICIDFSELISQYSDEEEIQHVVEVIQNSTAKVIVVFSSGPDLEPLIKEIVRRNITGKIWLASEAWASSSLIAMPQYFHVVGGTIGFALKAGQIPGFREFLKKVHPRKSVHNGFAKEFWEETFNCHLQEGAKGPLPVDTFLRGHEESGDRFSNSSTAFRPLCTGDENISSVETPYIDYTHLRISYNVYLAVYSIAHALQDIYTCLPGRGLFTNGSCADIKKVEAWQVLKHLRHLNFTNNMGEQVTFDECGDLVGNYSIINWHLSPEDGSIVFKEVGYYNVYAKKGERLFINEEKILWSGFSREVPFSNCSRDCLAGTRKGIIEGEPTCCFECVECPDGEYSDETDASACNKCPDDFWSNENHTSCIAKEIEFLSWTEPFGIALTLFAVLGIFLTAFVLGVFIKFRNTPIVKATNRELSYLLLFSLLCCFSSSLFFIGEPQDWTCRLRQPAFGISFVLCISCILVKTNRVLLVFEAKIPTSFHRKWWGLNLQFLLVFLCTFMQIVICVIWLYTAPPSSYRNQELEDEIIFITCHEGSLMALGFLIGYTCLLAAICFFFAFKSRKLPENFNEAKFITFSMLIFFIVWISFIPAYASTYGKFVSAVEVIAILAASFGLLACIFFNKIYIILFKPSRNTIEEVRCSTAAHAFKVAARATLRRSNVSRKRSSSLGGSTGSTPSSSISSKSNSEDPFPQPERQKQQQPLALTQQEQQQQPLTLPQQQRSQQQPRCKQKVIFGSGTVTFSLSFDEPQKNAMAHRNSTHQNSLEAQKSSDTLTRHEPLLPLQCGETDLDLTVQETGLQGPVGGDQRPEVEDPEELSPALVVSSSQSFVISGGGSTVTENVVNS
# Test: Calcium Receptor Inhibitor Assay (block of intracellular Ca2+ increase elicited by extracellular Ca2+, fluo-3)
# Assay type: cell-based
# Parameters: key: Compounds having an IC50 greater than 30 uM were considered to be inactive; Compounds having an IC50 greater than 30 uM were considered to be inactive
# Conditions: HEK 293 4.0-7 cells stably expressing the human calcium receptor; at the concentrations used
# Experimental: (I) Calcium Receptor Inhibitor Assay
# Calcilytic activity was measured by determining the IC50 of the test compound for blocking increases of intracellular Ca^2+ elicited by extracellular Ca^2+ in HEK 293 4.0-7 cells stably expressing the human calcium receptor. HEK 293 4.0-7 cells were constructed as described by Rogers et al., J. Bone Miner. Res. 10 Suppl. 1:3483, 1995 (hereby incorporated by reference herein). Intracellular Ca^2+ increases were elicited by increasing extracellular Ca^2+ from 1 to 1.75 mM. Intracellular Ca^2+ was measured using fluo-3, a fluorescent calcium indicator.
# The procedure was as follows:
# 1. Cells were maintained in T-150 flasks in selection media (DMEM supplemented with 10% fetal bovine serum and 200 ug/mL hygromycin B), under 5% CO2:95% air at 37° C. and were grown up to 90% confluency.
# 2. The medium was decanted and the cell monolayer was washed twice with phosphate-buffered saline (PBS) kept at 37° C. After the second wash, 6 mL of 0.02% EDTA in PBS was added and incubated for 4 minutes at 37° C. Following the incubation, cells were dispersed by gentle agitation.
# 3. Cells from 2 or 3 flasks were pooled and pelleted (100×g). The cellular pellet was resuspended in 10-15 mL of SPF-PCB+ and pelleted again by centrifugation. This washing was done twice.
# Sulfate- and phosphate-free parathyroid cell buffer (SPF-PCB) contains 20 mM Na-Hepes, pH 7.4, 126 mM NaCl, 5 mM KCl, and 1 mM MgCl2. SPF-PCB was made up and stored at 4° C. On the day of use, SPF-PCB was supplemented with 1 mg/mL of D-glucose and 1 mM CaCl2 and then split into two fractions. To one fraction, bovine serum albumin (BSA; fraction V, ICN) was added at 5 mg/mL (SPF-PCB+). This buffer was used for washing, loading and maintaining the cells. The BSA-free fraction was used for diluting the cells in the cuvette for measurements of fluorescence.
# 4. The pellet was resuspended in 10 mL of SPF-PCB+ containing 2.2 uM fluo-3 (Molecular Probes) and incubated at room temperature for 35 minutes.
# 5. Following the incubation period, the cells were pelleted by centrifugation. The resulting pellet was washed with SPF-PCB+. After this washing, cells were resuspended in SPF-PCB+ at a density of 1-2×10^6 cells/mL.
# 6. For recording fluorescent signals, 300 uL of cell suspension were diluted in 1.2 mL of SPF buffer containing 1 mM CaCl2 and 1 mg/mL of D-glucose. Measurements of fluorescence were performed at 37° C. with constant stirring using a spectrofluorimeter. Excitation and emission wavelengths were measured at 485 and 535 nm, respectively. To calibrate fluorescence signals, digitonin (5 mg/mL in ethanol) was added to obtain Fmax, and the apparent Fmin was determined by adding Tris-EGTA (2.5 M Tris-Base, 0.3 M EGTA). The concentration of intracellular calcium was calculated using the following equation:
# Intracellular calcium=(F−Fmin/Fmax)×Kd; where Kd=400 nM.
# 7. To determine the potential calcilytic activity of test compounds, cells were incubated with test compound (or vehicle as a control) for 90 seconds before increasing the concentration of extracellular Ca^2+ from 1 to 2 mM. Calcilytic compounds were detected by their ability to block, in a concentration-dependent manner, increases in the concentration of intracellular Ca^2+ elicited by extracellular Ca^2+.
# In general, those compounds having lower IC50 values in the Calcium Receptor Inhibitor Assay are more preferred compounds. […] The present examples were tested except for Examples 11, 20, 28, 44 and 107.
row,IC50 for blocking increases of intracellular Ca2+ elicited by extracellular Ca2+ (calcilytic activity),SMILES
1,inactive,"CCc1c(N2CCCCC2)nc(-c2cccc(F)c2O)n(CCc2cccc(F)c2)c1=O [Example 27, 5-Ethyl-2-(3-fluoro-2-hydroxyphenyl)-3-[2-(3-fluorophenyl)ethyl]-6-(1-Piperidinyl)-4(3H)-pyrimidinone]"
2,inactive,CCc1c(CCC2CCCCC2)nc(-c2cccc(F)c2O)n(CCc2ccccc2F)c1=O [Example 46]
3,inactive,"COc1ccccc1-c1nc(C)c(-c2cccs2)c(=O)n1CCc1ccccc1 [Example 100, 6-Methyl-2-[2-(methyloxy)phenyl]-3-(2-phenylethyl)-5-(2-thienyl)-4(3H)-pyrimidinone]"
4,inactive,"Cc1nc(-c2ccccc2O)n(CCc2ccccc2)c(=O)c1N [Example 123, 5-Amino-2-(2-hydroxyphenyl)-6-methyl-3-(2-phenylethyl)-4(3H)-pyrimidinone]"
5,inactive,"Cc1nc(-c2ccccc2O)n(CCc2ccccc2)c(=O)c1NC(=O)C(C)C [Example 127, N-[2-(2-Hydroxyphenyl)-4-methyl-6-oxo-1-(2-phenylethyl)-1,6-dihydro-5-pyrimidinyl]-2-methylpropanamide]"
6,inactive,"Cc1nc(-c2ccccc2O)n(CCc2ccccc2)c(=O)c1-c1ccc(-c2nnn[nH]2)s1 [Example 214, 2-(2-hydroxyphenyl)-6-methyl-3-(2-phenylethyl)-5-[5-(1H-tetrazol-5-yl)-2-thienyl]-4(3H)-pyrimidinone]"
7,inactive,"Cc1nc(-c2ccccc2O)n(CCc2ccccc2)c(=O)c1-c1ccc(CN)s1 [Example 215, 5-[5-(Aminomethyl)-2-thienyl]-2-(2-hydroxyphenyl)-6-methyl-3-(2-phenylethyl)-4(3H)-pyrimidinone]"
8,inactive,"CNCc1ccc(-c2c(C)nc(-c3ccccc3O)n(CCc3ccccc3)c2=O)s1 [Example 216, 2-(2-hydroxyphenyl)-6-methyl-5-{5-[(methylamino)methyl]-2-thienyl}-3-(2-phenylethyl)-4(3H)-pyrimidinone]"
